Values belong to the compound of their own block, whether it stands above or below them.
Legend:
PSMA (PSMA+ LNCaP cells) = target: T1, PSMA (PSMA+ LNCaP cells) (Homo sapiens, UniProt Q04609); test: Competitive cell binding assay against 68Ga-labeled PSMA-10 radioligand; details: radioligand [68Ga]Ga-PSMA-10 0.75 nM, metal-free ligand
T1 construct: host or cells: LNCaP cells
Experimental: (§1) PSMA^+ LNCaP cells (ATCC CRL-1740) were cultured in RPMI medium supplemented with 10% fetal calf serum and 2 mmol/L L-glutamine (all from PAA). Cells were grown at 37° C. in humidified air with 5% CO2 and were harvested using trypsin-ethylenediaminetetraacetic acid (trypsin-EDTA; 0.25% trypsin, 0.02% EDTA, Invitrogen).
The competitive cell binding assay and internalization experiments were performed as described previously (4). Briefly, the cells (10^5 per well) were incubated with a 0.75 nM solution of ^68Ga-labeled radioligand [Glu-urea-Lys(Ahx)]2-HBED-CC (PSMA-10, precursor ordered from ABX, Radeberg, Germany) in the presence of 12 different concentrations of analyte (0-5000 nM, 100 μL/well). After incubation, the mixture was removed and the wells were washed 3 times with PBS using a multiscreen vacuum manifold (Millipore, Billerica, Mass.). Cell-bound radioactivity was measured using a gamma counter (Packard Cobra II, GMI, Minn., USA). The 50% inhibitory concentration (IC50) values were calculated by fitting the data using a nonlinear regression algorithm (GraphPad Software).

PSMA+ LNCaP cells = test: Internalization experiments (surface-bound and internalized fractions); type: cell-based; details: 30 nM radiolabeled compound, 45 min
Experimental: as §1
For internalization experiments, 10^5 cells per well were seeded in poly-L-lysine coated 24-well cell culture plates 24 h before incubation. After washing, the cells were incubated with 30 nM of the radiolabeled compound for 45 min at 37° C. and at 4° C., respectively. Cellular uptake was terminated by washing 3 times with 1 mL of ice-cold PBS. To remove surface-bound radioactivity, cells were incubated twice with 0.5 mL glycine-HCl in PBS (50 mM, pH=2.8) for 5 min. The cells were washed with 1 mL of ice-cold PBS and lysed using 0.3 N NaOH (0.5 mL). The surface-bound and the internalized fractions were measured in a gamma counter. The cell uptake was calculated as percent of the initially added radioactivity bound to 10^5 cells [% ID/10^5 cells].

PSMA = PSMA (Homo sapiens, UniProt Q04609); details: radioligand of the competitive binding assay; cited from earlier work
Chain of PSMA (Q04609 whole entry, species assumed): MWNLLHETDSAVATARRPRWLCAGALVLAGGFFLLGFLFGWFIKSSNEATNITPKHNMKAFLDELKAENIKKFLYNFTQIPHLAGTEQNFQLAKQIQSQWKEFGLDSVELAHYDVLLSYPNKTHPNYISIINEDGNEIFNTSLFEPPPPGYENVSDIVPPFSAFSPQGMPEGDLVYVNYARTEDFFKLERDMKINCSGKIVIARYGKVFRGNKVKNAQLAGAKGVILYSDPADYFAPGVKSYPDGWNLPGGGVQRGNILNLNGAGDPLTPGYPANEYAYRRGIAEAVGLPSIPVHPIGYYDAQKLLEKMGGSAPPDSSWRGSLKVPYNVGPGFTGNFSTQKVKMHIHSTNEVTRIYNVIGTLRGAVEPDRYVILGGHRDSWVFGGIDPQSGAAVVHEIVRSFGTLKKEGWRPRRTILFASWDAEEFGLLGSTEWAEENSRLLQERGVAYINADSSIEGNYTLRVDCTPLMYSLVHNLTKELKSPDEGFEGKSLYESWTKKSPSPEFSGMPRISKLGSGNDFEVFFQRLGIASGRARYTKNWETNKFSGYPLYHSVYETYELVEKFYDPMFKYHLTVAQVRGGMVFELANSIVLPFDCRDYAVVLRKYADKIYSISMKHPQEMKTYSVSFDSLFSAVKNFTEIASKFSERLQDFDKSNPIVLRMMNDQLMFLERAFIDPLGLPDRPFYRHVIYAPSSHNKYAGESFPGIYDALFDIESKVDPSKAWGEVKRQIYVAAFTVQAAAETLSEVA

[1] = Biodistribution (organ distribution) of 68Ga-labeled compounds in LNCaP-tumor bearing mice; type: in vivo, BALB/c nu/nu mice; details: 1 h p.i.
Experimental: The precursor peptides [1 nmol in HEPES buffer (580 mg/ml), 40 μL] were added to 40 μL [^68Ga]Ga^3+ eluate (˜40 MBq). The pH was adjusted to 3.8 using 30% NaOH and 10% NaOH, respectively. The reaction mixture was incubated at 98° C. for 10 minutes. The radiochemical yield (RCY) was determined by HPLC.
For the experimental tumor models 5×10^6 cells of LNCaP (in 50% Matrigel; Becton Dickinson, Heidelberg, Germany) were subcutaneously inoculated into the right trunk of 7- to 8-week-old male BALB/c nu/nu mice (Charles River). The tumors were allowed to grow until approximately 1 cm^3 in size. The ^68Ga-labeled compounds were injected into a tail vein (1-2 MBq; 60 pmol). At 1 h after injection the animals were sacrificed. Organs of interest were dissected, blotted dry, and weighed. The radioactivity was measured using a gamma counter and calculated as % ID/g. All animal experiments complied with the current laws of the Federal Republic of Germany.

T1 sequence (Q04609 whole entry): as the sequence (Q04609 whole entry, species assumed) above

IC50 (PSMA (PSMA+ LNCaP cells)): 15.9 ± 5.46 nM
Compound: CC1(C)C(/C=C/C2=C(Oc3ccc(S(=O)(=O)O)cc3)C(=C/C=C3/N(CCCCS(=O)(=O)O)c4ccc(S(=O)(=O)O)cc4C3(C)C)/CCC2)=[N+](CCCCCC(=O)NCCCC[C@H](NC(=O)CN2CCN(CC(=O)O)CCN(CC(=O)O)CCN(CC(=O)O)CC2)C(=O)NC[C@H]2CC[C@H](C(=O)N[C@@H](Cc3ccc4ccccc4c3)C(=O)NCCCC[C@H](NC(=O)N[C@@H](CCC(=O)O)C(=O)O)C(=O)O)CC2)c2ccc(S(=O)(=O)[O-])cc21 (stereo in doubt) [Glu-urea-Lys-2-Nal-Chx-Lys(IRDye800CW)-DOTA]
Specific cell surface bound (PSMA+ LNCaP cells): 25.51 ± 9.73 % ID/10^5 cells
Specific internalized (PSMA+ LNCaP cells): 27.64 ± 12.80 % ID/10^5 cells

Compound: [Glu-urea-Lys(Ahx)]2-HBED-CC [[^68Ga]Ga -PSMA-10]
Kd (PSMA): 2.1 nM

Kidney uptake in comparison to the reference ([1]; in words): significantly reduced
Tumor uptake in comparison to the reference ([1]; in words): comparable
Organ distribution, Blood (Mean) ([1]; tail vein, 60 pmol, n = 3): 1.14 % ID/g
Organ distribution, Brain (Mean) ([1]; tail vein, 60 pmol, n = 3): 0.07 % ID/g
Organ distribution, Heart (Mean) ([1]; tail vein, 60 pmol, n = 3): 0.51 % ID/g
Organ distribution, Intestine (Mean) ([1]; tail vein, 60 pmol, n = 3): 0.43 % ID/g
Organ distribution, Kidney (Mean) ([1]; tail vein, 60 pmol, n = 3): 65.64 % ID/g
Organ distribution, Liver (Mean) ([1]; tail vein, 60 pmol, n = 3): 0.95 % ID/g
Organ distribution, Lung (Mean) ([1]; tail vein, 60 pmol, n = 3): 1.47 % ID/g
Organ distribution, Muscle (Mean) ([1]; tail vein, 60 pmol, n = 3): 0.34 % ID/g
Organ distribution, Spleen (Mean) ([1]; tail vein, 60 pmol, n = 3): 2.82 % ID/g
Organ distribution, Tumor (Mean) ([1]; LNCaP tumor, tail vein, 60 pmol, n = 3): 4.13 % ID/g
Compound: ^68Ga-Glu-urea-Lys-2-Nal-Chx-Lys(IRDye800CW)-DOTA

Source: patent US11638765B2, “Double-labeled probe for molecular imaging and use thereof” (Deutsches Krebsforschungszentrum, priority 2017, dated 2023)
